# Measurements: US9327023B2, “HER2 targeting agent treatment in non-HER2-amplified cancers having HER2 expressing cancer stem cells” (The Regents of the University of Michigan, priority 2011, dated 2016)
# Entries after “also recorded” stand apart in the source; their conditions may differ.
# Assays:
# [1] = system: IL6, IL8, and CCL5; assay: cytokine secretion of Sum159-HER2+PTEN- cells, ELISA; format: cell-based, human; conditions: for secretion of all three cytokines (IL6, IL8, CCL5) / reduced the levels of these cytokines: Sum159-HER2+PTEN- cells, 1 mM Stat3 Inhibitor VII; for secretion of all three cytokines (IL6, IL8, CCL5): 5 mM Bay11-7082, 5 mM perfosine; for reduced the levels of these cytokines: 5 mM perfosine
# Description: The NF-kB transcription factor is involved in the transcription of a number of cytokine genes including IL6, IL8, and CCL5 (Yu et al., 2010; herein incorporated by reference in its entirety). Furthermore, IL6-activated NF-kB signaling is mediated by Stat3 and Akt signaling pathways (Iliopoulos et al., 2009; herein incorporated by reference in its entirety). […] The effect of recombinant cytokines or cytokine-blocking antibodies on cytokine production was determined.
# [2] = system: SUM159-HER2+PTEN- xenografts; assay: SUM159-HER2+PTEN- trastuzumab-resistant xenografts; conditions: for tumor growth: 8 weeks, perifosine 20 mg/kg twice a week, anti-IL6R 10 mg/kg once a week; for serum human IL6 and IL8 in control and docetaxel-treated mice higher than in treated mice: ELISA; for serum IL6 or IL8 levels: human specific ELISA; for percent of Aldefluor-positive cells in tumors: mouse, in vivo; for body weight: tumor-bearing mice, docetaxel 10 mg/kg once a week
# [3] = system: BT474 cells; assay: tumorspheres in suspension cultures of BT474 cells; format: cell-based, human
# Description: Single cells were plated on ultra-low attachment plates at a density of 1×10^5/ml and grown for 7 days in a mammocult medium (Stem Cell Technologies). After the treatment of primary spheres, they were dissociated into single-cell suspension and plated at a density of 5×10^3-1×10^4/ml for the subsequent passages. Secondary spheres were counted after 5-7 days in culture.
# [4] = system: breast CSCs (tumor-initiating cells); assay: reimplantation assay of residual tumor cells into secondary mice; format: in vivo; conditions: residual tumors from treated mice
# Excerpt: One of the hallmarks of CSC model is their ability to initiate tumors in secondary reimplantation assays (Clarke et al., 2006; herein incorporated by reference in its entirety).
# [5] = system: parental BT474 or SKBR cells; assay: stimulation with recombinant IL6 or conditioned medium, mesenchymal phenotype and CD44; format: cell-based, human; conditions: 5 days
# Excerpt: (§1) The green fluorescent protein (GFP) label in the parental (PTEN wild-type) cells allowed separation by flow cytometry of cell populations following co-culture. Co-culture of parental BT474-GFP cells with BT474-PTEN^−LTT cells increased the percentage of CD44^+/CD24^− CSCs from 0.1% to 60% in parental cells (SEE FIG. 15A). Single GFP-expressing parental BT474 cells were sorted after 3 weeks of co-culture with BT474-PTEN^−LTT and generated multiple colonies. […] To examine the direct role of IL6 in these processes, parental BT474 or SKBR cells were stimulated with recombinant IL6 or conditioned medium (CM) from BT474-PTEN^−LTT cells in the presence or absence of anti-IL6R antibody.
# [6] = system: Sum159 cells; assay: CD44/CD24 flow cytometry of Sum159 cells; format: cell-based, human; conditions: 5 days
# Description: (§2) To measure ALDH activity, the Aldefluor assay was carried out according to manufacturer's guidelines (StemCell Technologies, Inc., Durham, N.C.). Indicated cells were incubated with fluorophore-conjugated CD44 or CD24 antibodies alone or in combination on ice for 30 min, washed with Hank's balanced salt solution (HBSS), and resuspended in DAPI containing HBSS buffer for flow cytometry analyses.
# However, there was approximately a 2-fold increase in IL6 secretion when cells were treated for 3 weeks or longer (SEE FIG. 14A). […] The effects of trastuzumab-mediated IL6 production on CSCs were also tested. […] In contrast, downregulation of PTEN in these cells generated a population that contained approximately 10% CD44^+/CD24^− cells (FIG. 14B). […] To determine whether induction of the CSC phenotype was dependent on IL6 production, the effect of addition of IL6 receptor antibody on induction of the CSC phenotype was assessed. […] The ability of the anti-IL6R antibody to affect the CD44^+/CD24^− population in Sum159 cells, which lack the expression of the luminal CD24 marker, was examined. […] This discrepancy may be explained by the existence of different stem cell populations in different breast cancer subtypes.
# [7] = system: BT474-DsRed and BT474-PTEN- cells; assay: CD44+/CD24- flow cytometry of BT474 cells; format: cell-based, human
# Description: as §2
# To determine whether induction of the CSC phenotype was dependent on IL6 production, the effect of addition of IL6 receptor antibody on induction of the CSC phenotype was assessed. […] The ability of the anti-IL6R antibody to affect the CD44^+/CD24^− population in Sum159 cells, which lack the expression of the luminal CD24 marker, was examined.
# [8] = system: parental BT474 cells; assay: co-culture of parental BT474 cells with BT474-PTEN-LTT cells; format: cell-based, human
# Excerpt: as §1
# [9] = system: BT474 cells; assay: cell growth / viable cells of BT474 cells; format: cell-based, human; conditions: parental BT474 cells
# [10] = system: trastuzumab-sensitive BT474-DsRed xenografts; assay: BT474-DsRed xenografts; format: in vivo, NOD/SCID mice; conditions: 7-week period, compared to saline
# [11] = system: trastuzumab-resistant BT474-PTEN- xenografts; assay: BT474-PTEN- xenografts; format: in vivo, NOD/SCID mice; conditions: for secondary tumors and distant metastasis after excision of primary tumors: excised after 8 weeks of treatment, luciferase imaging
# Excerpt: Treatments for all early settings were 8 weeks long. […] Drug doses were as described in early setting.
# To determine the effects of these treatments on the development of metastasis, we excised primary BT474-PTEN^− tumors after 8 weeks of treatment and assessed subsequent development of local and distant metastasis by luciferase imaging (FIG. 7D).
# [12] = system: HER2 expression in MCF7 cells; assay: co-culture of MCF7 cells with human osteocytes, HER2 expression by flow cytometry; format: cell-based; conditions: MCF7 co-cultured with human osteocytes
# Description: Preparation of cells for FACS analysis and sorting was described as followings. Cells were collected and rinsed twice in 1×PBS containing 2% FBS and a fraction of cells were added with human immunoglobulin to identify non-specific binding and use these cells as a gate for negative control. Cells were incubated with appropriate antibody dilution as manufacture's guidelines. The antibody included anti-HER2/neu APC (Biosciences, Cat#340554), anti-HER2/neu PE (Biosciences, Cat#340552).
# To simulate the bone microenvironment in vitro, co-culture experiments were performed utilizing MCF7, DsRed labeled with osteocytes generated from human bone mesenchymal stem cells. […] A number of biological effects of the bone microenvironment and mediated by RANK-ligand.
# [13] = system: luminal ZR75-1 tumor xenografts; assay: ZR75-1 xenograft in fat pad, early and late treatment; format: in vivo, NOD/SCID mice; conditions: for growth of established ZR75-1 tumors: late treatment, trastuzumab 4 mg/kg IP twice a week, docetaxel 10 mg/kg IP once a week
# Description: (§3) Five-week old NOD/SCID mice from breeding colony, University of Michigan, Harland and Jackson Laboratory were used throughout the experiments. All experiments involving live mice were conducted in accordance with standard operating procedures approved by University Committee on the Use and Care of Animals at the University of Michigan (ULAM). An estrogen pellet was subcutaneously implanted in each mouse with the fat pad injection of MCF7 or ZR75-1 cells. Mice were sacrificed when tumor reached 1-1.2 CM.
# (§4) A xenograft model was used to simulate clinical disease in adjuvant (early treatment) and advanced (late treatment) setting. 5 mice per treatment group were used. For adjuvant setting, 50,000 cells of BT474, ZR75-1 and MCF7 were injected into fat pads and began treatment immediately after inoculation. To simulate advanced disease, 1 million cells of BT474, ZR75-1 and MCF7 were inoculated into fat pads and tumors allowed to reach a size of approximately 0.4 cm. Then, treatment described below was initiated and continued along with assessment of tumor growth for 6-week period. Animals were sacrificed right after completion of 6-week treatment and cancer stem cells were analyzed by Aldefluor assay as described previously.
# (§5) NOD/SCID mice implanted with luciferase-labeled cells received 6-week of treatment in both advanced and adjuvant setting.
# (§6) Fat pad tumor diameter was measured by caliper weekly. Tumor volumes were calculated using the formula: volume=width^2×length/2. Luciferase-labeled tumor growth was monitored at least every 2 weeks using in vivo imaging system (ISVS, Caliper Life Science). Mice were injected with luciferin (Caliper), anesthetized and imaged according to manufacturer's protocols. For photon flux counting, a charge-coupled device camera system (Xenogen) with a nose-cone isofluorane delivery system and heated stage for maintaining body temperature was used. Results were analyzed after 10 minutes of exposure using the Living Image software provided with the Xenogen imaging system.
# [14] = system: HER2 amplified BT474 tumor xenografts; assay: BT474 xenograft in fat pad, early and late treatment; format: in vivo, NOD/SCID mice; conditions: for growth of established BT474 tumors: late treatment, trastuzumab 4 mg/kg IP twice a week, docetaxel 10 mg/kg IP once a week
# Description: as §3, §4, §5, §6
compound,measurement,setting,value
CCCCCCCCCCCCCCCCCCOP(=O)([O-])OC1CC[N+](C)(C)CC1 [perifosine],"secretion of all three cytokines (IL6, IL8, CCL5)",[1],only partially inhibited
same,reduced the levels of these cytokines,[1],50%
same,tumor growth,[2],significantly inhibited tumor growth
same,serum human IL6 and IL8 in control and docetaxel-treated mice higher than in treated mice,[2],2 fold
same,serum IL6 or IL8 levels,[2],significantly reduced
same,percent of Aldefluor-positive cells in tumors,[2],significantly reduced; also recorded: substantial reduction
same,body weight,[2],less body weight loss
Tocilizumab [anti-IL6R antibody],number of tumorspheres induced by CM,[3],reduced
same,frequency of CSCs reduced,[4],more than 50%
same,frequency of breast CSCs,[4],significantly lower
same,IL6- or CM-induced mesenchymal phenotype and CD44 expression,[5],able to reverse
same,cell growth,[6],substantial growth arrest
same,generation of CD24+ cells,[6],11%
same,IL6-increased production of all three cytokines,[1]; HER2+PTEN- cells with recombinant IL6,completely inhibited
same,reduced the levels of these cytokines,[1],more than 50%
same,CD44+/CD24- CSC population,[7],reduced
same,increase in CD44+/CD24- population induced by trastuzumab,[7],completely blocked
same,induction of the CD44+/CD24- phenotype,[8]; antibody added at the time of co-culture,inhibited
same,CD44+/CD24- phenotype in parental cells,[8]; late treatment,no effect; also recorded: resistant
same,CM- or IL6-conferred resistance to trastuzumab,[9],blocked; also recorded: reversed
same,growth of BT474-DsRed xenografts,[10],little effect
same,tumor growth,[2],significantly inhibited tumor growth
same,serum human IL6 and IL8 in control and docetaxel-treated mice higher than in treated mice,[2],2 fold
same,serum IL6 or IL8 levels,[2],significantly reduced
same,percent of Aldefluor-positive cells in tumors,[2],significantly reduced; also recorded: substantial reduction
same,growth of BT474-PTEN- xenografts,[11]; early treatment,completely blocked tumor growth
same,tumor growth as assessed by tumor weight at sacrifice,[11]; established tumors (late treatment),completely blocked tumor growth
same,secondary tumors and distant metastasis after excision of primary tumors,[11],no distant metastasis detected
same,secondary tumors and distant metastasis after excision of primary tumors,[11]; listed as Anti-IL6R antibody,completely inhibited
same,serum IL6 levels,[11]; human specific ELISA,lowest levels
Cc1ccc(S(=O)(=O)/C=C/C#N)cc1 [Bay11-7082],"secretion of all three cytokines (IL6, IL8, CCL5)",[1],completely inhibited
same,"secretion of all three cytokines (IL6, IL8, CCL5)",[1]; listed as Bay11,almost completely blocked; also recorded: completely suppressed
denosumab,HER2 induction by osteocyte co-cultures,[12],partially blocked
same,HER2 induction by osteocyte co-cultures,[12]; listed as Denosumab,able to suppress
Stat3 Inhibitor VII,"secretion of all three cytokines (IL6, IL8, CCL5)",[1],only partially inhibited
same,reduced the levels of these cytokines,[1],50%
CC(=O)O[C@@]12CO[C@@H]1C[C@H](O)[C@@]1(C)C(=O)[C@H](O)C3=C(C)[C@@H](OC(=O)[C@H](O)[C@@H](NC(=O)OC(C)(C)C)c4ccccc4)C[C@@](O)([C@@H](OC(=O)c4ccccc4)[C@H]21)C3(C)C [docetaxel],"tumor growth / formation, ZR75-1",[13]; early (adjuvant) setting,suppressed tumor formation
same,growth of established ZR75-1 tumors,[13],reduced tumor growth
same,growth of established ZR75-1 tumors,[13]; listed as Docetaxel,highest efficacy to shrink tumors
same,"tumor growth / formation, BT474",[14]; early (adjuvant) setting,suppressed tumor formation
same,growth of established BT474 tumors,[14],reduced tumor growth
same,growth of established BT474 tumors,[14]; listed as Docetaxel,highest efficacy to shrink tumors
same,serum IL6 or IL8 levels,[2],no significant effect
same,percent of Aldefluor-positive cells in tumors,[2],no significant effect; also recorded: no reduction
same,body weight,[2],lost body weight
